Data from ChEMBL document CHEMBL1201861, “Genomics of Drug Sensitity in Cancer screening data, Wellcome Trust Sanger Institute”.

Tests used:
Assay in all cases: cells
KYSE-150 cell line = format: functional, cell-based, Homo sapiens; conditions: Homo sapiens, KYSE-150;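 also: growth inhibition of human KYSE-150 cells, read out with a cell viability assay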
Description: SANGER: Inhibition of human KYSE-150 cell growth in a cell viability assay.

KURAMOCHI = format: functional, cell-based; conditions: Homo sapiens;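 also: growth inhibition of KURAMOCHI cells, read out with a cell viability assay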
Description: SANGER: Inhibition of human KURAMOCHI cell growth in a cell viability assay.

Calu-3 = format: functional, cell-based, Homo sapiens; conditions: Homo sapiens, Calu-3;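 also: growth inhibition of human Calu-3 cells, determined with a cell viability assay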
Description: SANGER: Inhibition of human Calu-3 cell growth in a cell viability assay.

KY821 = format: functional, cell-based; conditions: Homo sapiens;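 also: growth inhibition of human KY821 cells, read out by a cell viability assay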
A673 = format: functional, cell-based, Homo sapiens; conditions: Homo sapiens, A673;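 also: growth inhibition of human A673 cells, read out through a cell viability assay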
Description: SANGER: Inhibition of human A673 cell growth in a cell viability assay.

EC-GI-10 = format: functional, cell-based, Homo sapiens; conditions: Homo sapiens, EC-GI-10
Description: SANGER: Inhibition of human EC-GI-10 cell growth in a cell viability assay.

NCI-H446 = format: functional, cell-based; conditions: Homo sapiens;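 also: growth inhibition of NCI-H446 cells determined by a cell viability assay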
Description: SANGER: Inhibition of human NCI-H446 cell growth in a cell viability assay.

EW-13 = format: functional, cell-based; conditions: Homo sapiens;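 also: growth inhibition of EW-13 cells, read out with a cell viability assay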
Description: SANGER: Inhibition of human EW-13 cell growth in a cell viability assay.

EW-3 = format: functional, cell-based; conditions: Homo sapiens;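 also: cell viability assay read-out, IC50 reflects inhibition of growth of the EW-3 cells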
Description: SANGER: Inhibition of human EW-3 cell growth in a cell viability assay.

BXPC-3 = format: functional, cell-based, Homo sapiens; conditions: Homo sapiens, BXPC-3;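 also: growth inhibition of human BxPC-3 cells, read out by a cell viability assay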
Description: SANGER: Inhibition of human BxPC-3 cell growth in a cell viability assay.

OVCAR-8 = format: functional, cell-based, Homo sapiens; conditions: Homo sapiens, OVCAR-8;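 also: growth inhibition of human OVCAR-8 cells, read out by a cell viability assay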
Description: SANGER: Inhibition of human OVCAR-8 cell growth in a cell viability assay.

DMS-114 = format: functional, cell-based, Homo sapiens; conditions: Homo sapiens, DMS-114
A-375 = format: functional, cell-based, Homo sapiens; conditions: Homo sapiens, A-375;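 also: growth inhibition of A375 cells, read out with a cell viability assay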
Description: SANGER: Inhibition of human A375 cell growth in a cell viability assay.

C3A = format: functional, cell-based, Homo sapiens; conditions: Homo sapiens, C3A;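 also: growth inhibition of C3A human cells, quantified with a cell viability readout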
Description: SANGER: Inhibition of human C3A cell growth in a cell viability assay.

MKN-28 = format: functional, cell-based, Homo sapiens; conditions: Homo sapiens, MKN-28;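 also: cell viability assay read-out, IC50 reflects suppression of growth of human MKN-28 cells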
SJSA-1 = format: functional, cell-based, Homo sapiens; conditions: Homo sapiens, SJSA-1;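 also: growth inhibition of human SJSA-1 cells, read out through a cell viability measurement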
Description: SANGER: Inhibition of human SJSA-1 cell growth in a cell viability assay.

NCI-H1299 = format: functional, cell-based, Homo sapiens; conditions: Homo sapiens, NCI-H1299;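 also: growth inhibition of human NCI-H1299 cells, read out by a cell viability assay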
Description: SANGER: Inhibition of human NCI-H1299 cell growth in a cell viability assay.

NCI-H2347 = format: functional, cell-based, Homo sapiens; conditions: Homo sapiens, NCI-H2347;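 also: growth inhibition of the cell line, read out with a cell viability assay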
Description: SANGER: Inhibition of human NCI-H2347 cell growth in a cell viability assay.

AM-38 = format: functional, cell-based, Homo sapiens; conditions: Homo sapiens, AM-38;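 also: growth inhibition of AM-38 cells of human origin, read out by a cell viability assay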
CAL-39 = format: functional, cell-based, Homo sapiens; conditions: Homo sapiens, CAL-39;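 also: cell viability assay measuring growth inhibition of CAL-39 cells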
Description: SANGER: Inhibition of human CAL-39 cell growth in a cell viability assay.

ES8 = format: functional, cell-based, Homo sapiens; conditions: Homo sapiens, ES8;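 also: growth inhibition of human ES8 cells, read out with a cell viability assay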
Description: SANGER: Inhibition of human ES8 cell growth in a cell viability assay.

SNU-387 = format: functional, cell-based, Homo sapiens; conditions: Homo sapiens, SNU-387
Description: SANGER: Inhibition of human SNU-387 cell growth in a cell viability assay.

COR-L105 = format: functional, cell-based, Homo sapiens; conditions: Homo sapiens, COR-L105;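 also: cell growth inhibition determined with a viability assay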
Description: SANGER: Inhibition of human COR-L105 cell growth in a cell viability assay.

HCC1806 = format: functional, cell-based, Homo sapiens; conditions: Homo sapiens, HCC1806;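 also: growth inhibition of the cancer cell line, determined with a cell viability assay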
Description: SANGER: Inhibition of human HCC1806 cell growth in a cell viability assay.

LU-134-A = format: functional, cell-based; conditions: Homo sapiens
Description: SANGER: Inhibition of human LU-134-A cell growth in a cell viability assay.

AN3-CA = format: functional, cell-based; conditions: Homo sapiens;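 also: growth inhibition of human AN3-CA cells measured by a cell viability assay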
Description: SANGER: Inhibition of human AN3-CA cell growth in a cell viability assay.

NCI-H1993 = format: functional, cell-based, Homo sapiens; conditions: Homo sapiens, NCI-H1993;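 also: growth inhibition of the cancer cell line, assessed with a cell viability assay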
Description: SANGER: Inhibition of human NCI-H1993 cell growth in a cell viability assay.

COLO-800 = format: functional, cell-based, Homo sapiens; conditions: Homo sapiens, COLO-800;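 also: growth inhibition of COLO-800 cells, read out with a cell viability assay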
Description: SANGER: Inhibition of human COLO-800 cell growth in a cell viability assay.

HuTu80 = format: functional, cell-based, Homo sapiens, HUTU-80; conditions: Homo sapiens, HuTu80;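 also: growth inhibition of HuTu80 human cells, determined with a cell viability readout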
Description: SANGER: Inhibition of human HUTU-80 cell growth in a cell viability assay.

HT-1376 = format: functional, cell-based, Homo sapiens; conditions: Homo sapiens, HT-1376
Description: SANGER: Inhibition of human HT-1376 cell growth in a cell viability assay.

DoTc2-4510 = format: functional, cell-based, Homo sapiens; conditions: Homo sapiens, DoTc2-4510
A2058 = format: functional, cell-based; conditions: Homo sapiens;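 also: reduction of A2058 cell growth, read out with a viability assay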
Description: SANGER: Inhibition of human A2058 cell growth in a cell viability assay.

697 = format: functional, cell-based; conditions: Homo sapiens
Description: SANGER: Inhibition of human 697 cell growth in a cell viability assay.

CAPAN-1 = format: functional, cell-based, Homo sapiens; conditions: Homo sapiens, CAPAN-1;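 also: growth suppression of CAPAN-1 cells, read out by a cell viability assay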
Description: SANGER: Inhibition of human CAPAN-1 cell growth in a cell viability assay.

NCI-H2122 = format: functional, cell-based, Homo sapiens; conditions: Homo sapiens, NCI-H2122;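 also: growth inhibition of the cells, read out with a cell viability assay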
Description: SANGER: Inhibition of human NCI-H2122 cell growth in a cell viability assay.

HCC1954 = format: functional, cell-based, Homo sapiens; conditions: Homo sapiens, HCC1954;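 also: growth inhibition of human HCC1954 cells, read out with a cell viability assay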
Description: SANGER: Inhibition of human HCC1954 cell growth in a cell viability assay.

SNU-449 = format: functional, cell-based, Homo sapiens; conditions: Homo sapiens, SNU-449
Description: SANGER: Inhibition of human SNU-449 cell growth in a cell viability assay.

SW780 = format: functional, cell-based, Homo sapiens; conditions: Homo sapiens, SW780;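 also: growth inhibition of the cells, read out with a cell viability assay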
Description: SANGER: Inhibition of human SW780 cell growth in a cell viability assay.

TGBC24TKB = format: functional, cell-based, Homo sapiens; conditions: Homo sapiens, TGBC24TKB;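 also: growth inhibition of human TGBC24TKB cells, read out with a cell viability assay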
Description: SANGER: Inhibition of human TGBC24TKB cell growth in a cell viability assay.

CAL-33 = format: functional, cell-based, Homo sapiens; conditions: Homo sapiens, CAL-33;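 also: growth inhibition of CAL-33 cells, read out with a cell viability assay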
Description: SANGER: Inhibition of human CAL-33 cell growth in a cell viability assay.

SK-N-DZ = format: functional, cell-based, Homo sapiens; conditions: Homo sapiens, SK-N-DZ;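 also: growth inhibition of the cancer cell line, read out through a viability assay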
Description: SANGER: Inhibition of human SK-N-DZ cell growth in a cell viability assay.

MCF7 = format: functional, cell-based, Homo sapiens; conditions: Homo sapiens, MCF7;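 also: growth inhibition of human MCF7 cells, read out with a cell viability assay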
Description: SANGER: Inhibition of human MCF7 cell growth in a cell viability assay.

UMC-11 = format: functional, cell-based, Homo sapiens; conditions: Homo sapiens, UMC-11;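 also: growth inhibition of UMC-11 cells, read out with a cell viability assay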
Description: SANGER: Inhibition of human UMC-11 cell growth in a cell viability assay.

SW1573 = format: functional, cell-based, Homo sapiens; conditions: Homo sapiens, SW1573;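 also: growth inhibition of SW1573 cells, read out with a cell viability assay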
Description: SANGER: Inhibition of human SW1573 cell growth in a cell viability assay.

LAMA-84 = format: functional, cell-based; conditions: Homo sapiens;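 also: growth inhibition of LAMA-84 cells, read out with a cell viability assay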
Description: SANGER: Inhibition of human LAMA-84 cell growth in a cell viability assay.

EOL1 = format: functional, cell-based; conditions: Homo sapiens;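 also: growth inhibition of EoL-1 cells, read out by a cell viability assay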
Description: SANGER: Inhibition of human EoL-1-cell cell growth in a cell viability assay.

HCC2157 = format: functional, cell-based; conditions: Homo sapiens;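 also: growth inhibition of the cancer cell line, read out as cell viability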
Description: SANGER: Inhibition of human HCC2157 cell growth in a cell viability assay.

SW684 = format: functional, cell-based, Homo sapiens; conditions: Homo sapiens, SW684;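 also: growth inhibition of human SW684 cells, measured by a cell viability assay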
Description: SANGER: Inhibition of human SW684 cell growth in a cell viability assay.

TE-5 = format: functional, cell-based, Homo sapiens; conditions: Homo sapiens, TE-5;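 also: inhibition of cell growth, read out by a cell viability assay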
Description: SANGER: Inhibition of human TE-5 cell growth in a cell viability assay.

GT3TKB = format: functional, cell-based, Homo sapiens; conditions: Homo sapiens, GT3TKB;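 also: growth inhibition of the cell line, read out with a cell viability assay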
Description: SANGER: Inhibition of human GT3TKB cell growth in a cell viability assay.

NCI-H1792 = format: functional, cell-based, Homo sapiens; conditions: Homo sapiens, NCI-H1792;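 also: growth inhibition of human NCI-H1792 cells, read out as cell viability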
Description: SANGER: Inhibition of human NCI-H1792 cell growth in a cell viability assay.

Compound: CCC1=C[C@@H]2CN(C1)Cc1c([nH]c3ccccc13)[C@@](C(=O)OC)(c1cc3c(cc1OC)N(C)[C@H]1[C@@](O)(C(=O)OC)[C@H](OC(C)=O)[C@]4(CC)C=CCN5CC[C@]31[C@@H]54)C2 [VINORELBINE]
- IC50 (KYSE-150 cell line): 0.00304 µM
- IC50 (KURAMOCHI): 0.00281 µM
- IC50 (Calu-3): 0.018 µM
- IC50 (KY821): > 0.064 µM
- IC50 (A673): 0.00727 µM
- IC50 (EC-GI-10): > 0.064 µM
- IC50 (NCI-H446): 0.0148 µM
- IC50 (EW-13): 0.00662 µM
- IC50 (EW-3): > 0.064 µM
- IC50 (BXPC-3): 0.0039 µM
- IC50 (OVCAR-8): 0.0066 µM
- IC50 (DMS-114): > 0.064 µM
- IC50 (A-375): 0.0382 µM
- IC50 (C3A): > 0.064 µM
- IC50 (MKN-28): 0.00477 µM
- IC50 (SJSA-1): 0.0126 µM
- IC50 (NCI-H1299): 0.0136 µM
- IC50 (NCI-H2347): 0.0261 µM
- IC50 (AM-38): 0.0335 µM
- IC50 (CAL-39): 0.00426 µM
- IC50 (ES8): 0.00272 µM
- IC50 (SNU-387): 0.0102 µM
- IC50 (COR-L105): 0.0309 µM
- IC50 (HCC1806): 0.0239 µM
- IC50 (LU-134-A): 0.0472 µM
- IC50 (AN3-CA): 0.00627 µM
- IC50 (NCI-H1993): > 0.064 µM
- IC50 (COLO-800): 0.017 µM
- IC50 (HuTu80): 0.00218 µM
- IC50 (HT-1376): 0.0315 µM
- IC50 (DoTc2-4510): 0.00359 µM
- IC50 (A2058): 0.0035 µM
- IC50 697: 0.00423 µM
- IC50 (CAPAN-1): 0.0142 µM
- IC50 (NCI-H2122): 0.00259 µM
- IC50 (HCC1954): 0.0101 µM
- IC50 (SNU-449): > 0.064 µM
- IC50 (SW780): 0.0149 µM
- IC50 (TGBC24TKB): 0.0201 µM
- IC50 (CAL-33): 0.00502 µM
- IC50 (SK-N-DZ): > 0.064 µM
- IC50 (MCF7): 0.00501 µM
- IC50 (UMC-11): > 0.064 µM
- IC50 (SW1573): 0.034 µM
- IC50 (LAMA-84): 0.0458 µM
- IC50 (EOL1): 0.00909 µM
- IC50 (HCC2157): 0.0188 µM
- IC50 (SW684): 0.0242 µM
- IC50 (TE-5): 0.0117 µM
- IC50 (GT3TKB): 0.000748 µM
- IC50 (NCI-H1792): > 0.064 µM

Compound: Cc1ccc(Nc2nccc(N(C)c3ccc4c(C)n(C)nc4c3)n2)cc1S(N)(=O)=O [PAZOPANIB]
- IC50 (KYSE-150 cell line): > 8 µM
- IC50 (KURAMOCHI): > 8 µM
- IC50 (Calu-3): > 8 µM
- IC50 (KY821): > 8 µM
- IC50 (A673): > 8 µM
- IC50 (EC-GI-10): > 8 µM
- IC50 (NCI-H446): > 8 µM
- IC50 (EW-13): > 8 µM
- IC50 (EW-3): > 8 µM
- IC50 (BXPC-3): > 8 µM
- IC50 (OVCAR-8): > 8 µM
- IC50 (DMS-114): > 8 µM
- IC50 (A-375): > 8 µM
- IC50 (C3A): > 8 µM
- IC50 (MKN-28): > 8 µM
- IC50 (SJSA-1): > 8 µM
- IC50 (NCI-H1299): > 8 µM
- IC50 (NCI-H2347): > 8 µM
- IC50 (AM-38): > 8 µM
- IC50 (CAL-39): > 8 µM
- IC50 (ES8): > 8 µM
- IC50 (SNU-387): > 8 µM
- IC50 (COR-L105): > 8 µM
- IC50 (HCC1806): > 8 µM
- IC50 (LU-134-A): > 8 µM
- IC50 (AN3-CA): 0.0101 µM
- IC50 (NCI-H1993): > 8 µM
- IC50 (COLO-800): > 8 µM
- IC50 (HuTu80): 1.28 µM
- IC50 (HT-1376): > 8 µM
- IC50 (DoTc2-4510): > 8 µM
- IC50 (A2058): > 8 µM
- IC50 697: > 8 µM
- IC50 (CAPAN-1): > 8 µM
- IC50 (NCI-H2122): > 8 µM
- IC50 (HCC1954): > 8 µM
- IC50 (SNU-449): > 8 µM
- IC50 (SW780): > 8 µM
- IC50 (TGBC24TKB): > 8 µM
- IC50 (CAL-33): > 8 µM
- IC50 (SK-N-DZ): 2.02 µM
- IC50 (MCF7): > 8 µM
- IC50 (UMC-11): > 8 µM
- IC50 (SW1573): > 8 µM
- IC50 (LAMA-84): > 8 µM
- IC50 (EOL1): < 0.0312 µM
- IC50 (HCC2157): > 8 µM
- IC50 (SW684): > 8 µM
- IC50 (TE-5): > 8 µM
- IC50 (GT3TKB): > 8 µM
- IC50 (NCI-H1792): > 8 µM

Compound: COC(=O)CNC(=O)C(=O)OC
- IC50 (KYSE-150 cell line): 1330 µM
- IC50 (KURAMOCHI): 1570 µM
- IC50 (Calu-3): 65.7 µM
- IC50 (KY821): > 4000 µM
- IC50 (A673): 526 µM
- IC50 (EC-GI-10): > 4000 µM
- IC50 (NCI-H446): 646 µM
- IC50 (EW-13): 39 µM
- IC50 (EW-3): 1890 µM
- IC50 (BXPC-3): 639 µM
- IC50 (OVCAR-8): 593 µM
- IC50 (DMS-114): > 4000 µM
- IC50 (A-375): 176 µM
- IC50 (C3A): 159 µM
- IC50 (MKN-28): 1120 µM
- IC50 (SJSA-1): 278 µM
- IC50 (NCI-H1299): 2150 µM
- IC50 (NCI-H2347): 121 µM
- IC50 (AM-38): 668 µM
- IC50 (CAL-39): 19.3 µM
- IC50 (ES8): 673 µM
- IC50 (SNU-387): 220 µM
- IC50 (COR-L105): 26.4 µM
- IC50 (HCC1806): 1840 µM
- IC50 (LU-134-A): > 4000 µM
- IC50 (AN3-CA): 209 µM
- IC50 (NCI-H1993): 331 µM
- IC50 (COLO-800): > 4000 µM
- IC50 (HuTu80): 1260 µM
- IC50 (HT-1376): 389 µM
- IC50 (DoTc2-4510): 153 µM
- IC50 (A2058): 166 µM
- IC50 697: 229 µM
- IC50 (CAPAN-1): 101 µM
- IC50 (NCI-H2122): 74.4 µM
- IC50 (HCC1954): 900 µM
- IC50 (SNU-449): 92.5 µM
- IC50 (SW780): 133 µM
- IC50 (TGBC24TKB): > 4000 µM
- IC50 (CAL-33): 242 µM
- IC50 (SK-N-DZ): 3090 µM
- IC50 (MCF7): > 4000 µM
- IC50 (UMC-11): 147 µM
- IC50 (SW1573): 2520 µM
- IC50 (LAMA-84): 2110 µM
- IC50 (EOL1): 122 µM
- IC50 (HCC2157): > 4000 µM
- IC50 (SW684): 2470 µM
- IC50 (TE-5): 1080 µM
- IC50 (GT3TKB): 242 µM
- IC50 (NCI-H1792): 706 µM
